From the supplement of paper PMC10307832

What follows are cell lines tested with Cc1ccc2nc(NCCN)c3ncc(C)n3c2c1 + O=C(c1cc(Cc2n[nH]c(=O)c3ccccc23)ccc1F)N1CCN(C(=O)C2CC2)CC1 [Olaparib] (partner 8 µM) (assay: relative viability (nuclei count vs DMSO), 5 days (fraction); higher = more cells survive). Settings: first compound 0.04 µM.
How it was run: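 Dosing by pin tool came one day after lung cancer cell lines were seeded in 1536-well plates, using either one drug or a fixed anchor-drug dose plus five library-drug doses (not always all listed) in √10 steps. After 5 days, nuclei were counted on 4× images. Relative viability is treated-well nuclei count divided by vehicle-well nuclei count, and values are medians of duplicate plates.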

Row | Cell Line | relative viability
1 | SK-LU-1 | 0.515
2 | NCI-H1299 | 0.973
3 | CAL-12T | 0.77
4 | NCI-H2228 | 0.721
5 | NCI-H2023 | 0.503
6 | NCI-H1648 | 1.08

Same assay, conditions: first compound 0.1265 µM

Row | Cell Line | relative viability
7 | NCI-H522 | 0.708
8 | NCI-H2342 | 0.439
9 | NCI-H1650 | 0.804
10 | EBC-1 | 0.681
11 | NCI-H1703 | 0.362
12 | NCI-H1993 | 0.962
13 | SW 1573 | 0.404
14 | NCI-H838 | 0.717
15 | LCLC-103H | 0.748
16 | NCI-H520 | 0.368
17 | NCI-H2126 | 0.903
18 | EMC-BAC-2 | 0.502
19 | NCI-H2085 | 0.752
20 | Calu-6 | 0.601
21 | HCC-366 | 0.394
22 | NCI-H1666 | 0.755
23 | NCI-H596 | 0.857
24 | LK-2 | 0.778
25 | NCI-H2087 | 0.522

Row | Cell Line | relative viability
26 | NCI-H358 | 0.644
27 | NCI-H2170 | 0.702
28 | H3255 | 0.482
29 | COR-L23 | 0.351
30 | COR-L 105 | 0.883
31 | IA-LM | 0.793
32 | LOU-NH91 | 0.92
33 | ChaGo-K-1 | 0.458
34 | A549 | 0.406
35 | SK-MES-1 | 0.736
36 | SW 900 | 0.865
37 | NCI-H2009 | 0.661
38 | NCI-H661 | 0.815
39 | SK-LU-1 | 0.422
40 | NCI-H1299 | 0.965
41 | CAL-12T | 0.738
42 | NCI-H2228 | 0.692
43 | NCI-H2023 | 0.56
44 | NCI-H1648 | 0.846

Same assay, conditions: first compound 0.4 µM

Row | Cell Line | relative viability
45 | NCI-H522 | 0.585
46 | NCI-H2342 | 0.453
47 | NCI-H727 | 0.731
48 | NCI-H1650 | 0.715
49 | EBC-1 | 0.72
50 | NCI-H1703 | 0.619
51 | NCI-H1993 | 0.86
52 | SW 1573 | 0.504
53 | NCI-H838 | 0.709
54 | LCLC-103H | 0.778
55 | NCI-H520 | 0.323
56 | NCI-H2126 | 0.943
57 | EMC-BAC-2 | 0.507
58 | NCI-H2085 | 0.836
59 | Calu-6 | 0.6
60 | HCC-366 | 0.36
61 | NCI-H1666 | 0.751
62 | NCI-H596 | 0.771

Row | Cell Line | relative viability
63 | LK-2 | 0.706
64 | NCI-H2087 | 0.609
65 | NCI-H358 | 0.603
66 | NCI-H2170 | 0.56
67 | H3255 | 0.516
68 | COR-L23 | 0.397
69 | COR-L 105 | 0.665
70 | IA-LM | 0.974
71 | LOU-NH91 | 0.877
72 | ChaGo-K-1 | 0.412
73 | A549 | 0.333
74 | SK-MES-1 | 0.745
75 | SW 900 | 0.884
76 | NCI-H2009 | 0.666
77 | NCI-H661 | 0.701
78 | SK-LU-1 | 0.513
79 | NCI-H1299 | 0.985
80 | CAL-12T | 0.827
